Results taken from patent US20250179440A1, “METHOD FOR CULTURING CANCER ORGANOID AND METHOD FOR SCREENING TEST SUBSTANCE” (TOPPAN Holdings Inc., priority 2022, published 2025).

System: blood vessel network of the cell structure (HUVEC/NHDF)
Experiment: Blood vessel network formation in the cell structure co-cultured with PDOs (anti-CD31 immunostaining)
Format: cell-based, human
Conditions: added factor of EGM2 added singly to DMEM and EBM2; FIGS. 9 and 10
Experimental: The pre-culture of the patient-derived PDOs and the preparation of the cell structure were performed by the same method as in Example 1. For the co-culture of the PDOs and the cell structure, a method for top surface culture of the cell structure using single-celled PDOs was adopted. In addition, regarding the sample for which the culture was continued, the co-culture of the PDOs and the cell structure was performed by the same method as in Example 1, except that the medium was replaced using each medium at a timing of once every three or four days. Fluorescence immunostaining, image capturing, and image analysis were performed by the same methods as in Example 1. Next, in order to identify the inhibitory factors among the added factors, media obtained by adding each of the added factors of EGM2 shown in Table 7 to D-MEM and EBM2, and media obtained by excluding each of the added factors shown in Table 7 from EGM2 were prepared, and vascular network evaluation was performed. The scale bars in FIGS. 9 and 10 indicate 500 μm. […] In FIG. 10, +means that the added factor is included, and −means that the added factor is excluded.

With `C[C@]12CCC(=O)C=C1CC[C@@H]1[C@@H]2[C@@H](O)C[C@@]2(C)[C@H]1CC[C@]2(O)C(=O)CO` [Hydrocortisone] the “formation of the blood vessel network” value was “the formation of the blood vessel network was suppressed”.
